Results from patent US20150246938A1, “NOVEL OLEFIN DERIVATIVE” (SHIONOGI & CO., LTD., priority 2011, published 2015).

molecular target: T1, recombinant human ACC2 (Homo sapiens, UniProt O00763); test: Measurement of inhibitory activity on human ACC2 (MALDI-TOF MS, acetyl CoA to malonyl CoA conversion); assay type: biochemical; conditions: not given
T1 construct: a cDNA encoding human ACC2 (27-2458) was cloned from human kidney cDNA library (Clontech); His-tag (N); made in house; host or cells: Sf-9 insect cells (Bac-to-Bac baculovirus)
T1 sequence (O00763 27-2458): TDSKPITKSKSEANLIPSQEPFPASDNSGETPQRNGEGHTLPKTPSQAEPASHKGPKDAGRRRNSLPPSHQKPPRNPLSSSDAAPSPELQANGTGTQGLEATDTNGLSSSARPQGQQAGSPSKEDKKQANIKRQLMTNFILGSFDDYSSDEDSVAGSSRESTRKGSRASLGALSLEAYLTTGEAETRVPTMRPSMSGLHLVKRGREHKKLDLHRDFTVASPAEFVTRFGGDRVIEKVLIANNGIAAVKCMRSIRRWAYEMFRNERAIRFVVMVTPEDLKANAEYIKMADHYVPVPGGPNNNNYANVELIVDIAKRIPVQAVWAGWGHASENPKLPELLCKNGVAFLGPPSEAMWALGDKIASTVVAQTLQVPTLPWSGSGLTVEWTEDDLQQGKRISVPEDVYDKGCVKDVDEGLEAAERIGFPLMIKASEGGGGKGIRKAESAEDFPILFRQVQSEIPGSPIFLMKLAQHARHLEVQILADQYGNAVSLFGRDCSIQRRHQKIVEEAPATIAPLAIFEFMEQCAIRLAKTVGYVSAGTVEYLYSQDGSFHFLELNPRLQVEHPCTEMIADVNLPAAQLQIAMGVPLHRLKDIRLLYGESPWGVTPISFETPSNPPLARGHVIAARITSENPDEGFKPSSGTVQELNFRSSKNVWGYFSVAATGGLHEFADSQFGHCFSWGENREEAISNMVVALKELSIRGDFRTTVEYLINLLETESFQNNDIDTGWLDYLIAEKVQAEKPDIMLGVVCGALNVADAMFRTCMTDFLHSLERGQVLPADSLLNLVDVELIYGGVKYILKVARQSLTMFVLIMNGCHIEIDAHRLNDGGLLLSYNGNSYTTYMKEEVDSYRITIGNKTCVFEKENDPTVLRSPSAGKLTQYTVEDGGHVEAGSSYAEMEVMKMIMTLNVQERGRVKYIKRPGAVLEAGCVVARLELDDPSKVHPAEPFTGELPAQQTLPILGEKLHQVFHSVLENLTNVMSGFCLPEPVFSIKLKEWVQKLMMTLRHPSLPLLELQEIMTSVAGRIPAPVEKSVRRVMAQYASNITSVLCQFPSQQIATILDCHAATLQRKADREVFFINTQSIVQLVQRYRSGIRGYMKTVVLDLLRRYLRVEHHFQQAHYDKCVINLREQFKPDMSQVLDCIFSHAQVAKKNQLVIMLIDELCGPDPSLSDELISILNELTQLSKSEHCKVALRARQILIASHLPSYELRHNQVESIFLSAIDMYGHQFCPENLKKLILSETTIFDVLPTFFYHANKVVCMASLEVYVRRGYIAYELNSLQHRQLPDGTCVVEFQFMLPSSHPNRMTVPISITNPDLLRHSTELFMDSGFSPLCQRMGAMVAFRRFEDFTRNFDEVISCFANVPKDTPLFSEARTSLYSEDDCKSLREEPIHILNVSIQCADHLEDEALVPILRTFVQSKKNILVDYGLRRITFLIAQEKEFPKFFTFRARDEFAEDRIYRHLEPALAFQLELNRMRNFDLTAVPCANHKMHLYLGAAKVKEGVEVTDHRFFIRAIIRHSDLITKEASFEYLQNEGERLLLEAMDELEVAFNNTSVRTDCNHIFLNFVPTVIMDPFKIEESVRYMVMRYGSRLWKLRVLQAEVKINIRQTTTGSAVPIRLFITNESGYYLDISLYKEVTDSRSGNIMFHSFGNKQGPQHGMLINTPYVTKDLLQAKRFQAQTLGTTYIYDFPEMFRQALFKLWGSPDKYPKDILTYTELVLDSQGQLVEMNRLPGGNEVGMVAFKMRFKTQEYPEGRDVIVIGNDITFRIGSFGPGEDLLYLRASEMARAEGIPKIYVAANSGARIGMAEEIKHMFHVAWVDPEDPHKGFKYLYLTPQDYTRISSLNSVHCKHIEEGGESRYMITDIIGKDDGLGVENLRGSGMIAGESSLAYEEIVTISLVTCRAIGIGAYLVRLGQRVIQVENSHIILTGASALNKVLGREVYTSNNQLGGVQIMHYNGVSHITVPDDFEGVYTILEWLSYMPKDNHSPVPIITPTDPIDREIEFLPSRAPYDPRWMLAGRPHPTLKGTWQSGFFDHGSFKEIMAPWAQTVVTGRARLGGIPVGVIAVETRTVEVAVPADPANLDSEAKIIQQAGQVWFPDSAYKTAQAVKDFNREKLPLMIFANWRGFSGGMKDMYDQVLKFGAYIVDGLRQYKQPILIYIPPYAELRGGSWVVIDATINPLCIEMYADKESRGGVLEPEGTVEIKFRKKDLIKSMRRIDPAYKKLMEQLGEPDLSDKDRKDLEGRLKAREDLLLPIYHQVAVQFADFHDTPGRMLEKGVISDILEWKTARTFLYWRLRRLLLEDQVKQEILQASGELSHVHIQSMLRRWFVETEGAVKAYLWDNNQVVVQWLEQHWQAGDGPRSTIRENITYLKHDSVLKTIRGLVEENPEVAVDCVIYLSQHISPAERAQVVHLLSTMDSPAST

IC50	Compound
0.061 µM	CCNC(=O)N[C@@H](C)/C=C/c1cnc(Oc2ccc(OCC3CC3)cc2Cl)s1 [Compound I-195]

same assay, conditions: inhibition activity on human ACC2, Table 80; read-out: IC50

IC50	Compound
0.93 µM	COc1cccc(C(=O)N[C@@H](C)/C=C/c2cnc(Oc3ccc(OCC4CC4)cc3Cl)s2)c1 [Compound I-156]
0.32 µM	CCCOc1ccc(Oc2ncc(/C=C/[C@H](C)NC(=O)C3(C#N)CC3)s2)c(Cl)c1 [Compound I-162]
0.022 µM	CCCOc1ccc(Oc2ncc(/C=C/[C@H](C)NC(=O)c3ccnc(C(=O)OCC)c3)s2)c(Cl)c1 [Compound I-168]
0.059 µM	CCOC(=O)c1cc(C(=O)N[C@@H](C)/C=C/c2cnn(Cc3ccc(OCC4CC4)cc3Cl)c2)ccn1 [Compound I-173]
0.66 µM	COC(=O)N[C@@H](C)/C=C/c1cnn(Cc2ccc(OCC3CC3)cc2Cl)c1 [Compound I-183]
0.11 µM	CCOc1ccc(Oc2ccc(/C=C/[C@H](C)NC(N)=O)cn2)c(Cl)c1 [Compound I-184]
1.8 µM	CCOc1ccc(C(F)(F)c2ccc(/C=C/[C@H](C)NC(N)=O)cn2)c(Cl)c1 [Compound I-188]
0.069 µM	CCOc1ccc(Oc2ccc(/C=C/[C@H](C)Nc3cc(C)on3)cn2)c(Cl)c1 [Compound I-203]
0.038 µM	CCOc1ccc(Oc2ccc(/C=C/[C@H](C)Nc3cc(C)no3)cn2)c(Cl)c1 [Compound I-204]
1.6 µM	Cc1cc(N[C@@H](C)/C=C/c2cnn(Cc3ccc(OCC4CC4)cc3Cl)c2)no1 [Compound I-205]
0.0063 µM	C[C@@H](/C=C/c1cnc(Oc2ccc(OCC3CC3)cc2Cl)s1)NC(=O)c1ccnc(C(=O)NCCO)c1 [Compound I-206]
0.024 µM	C[C@@H](/C=C/c1cnc(Oc2ccc(OCC3CC3)cc2Cl)s1)NC(=O)c1ccnc(C(=O)NCCN2CCCC2)c1 [Compound I-215]
0.044 µM	CCNC(=O)c1cc(C(=O)N[C@@H](C)/C=C/c2cnn(Cc3ccc(OCC4CC4)cc3Cl)c2)ccn1 [Compound I-233]
0.016 µM	C[C@@H](/C=C/c1cnc(Oc2ccc(OCC3CC3)cc2Cl)s1)NC(=O)c1ccnc(OCCN2CCCC2)c1 [Compound I-242]
0.58 µM	C[C@@H](/C=C/c1cnc(Oc2ccc(OCC3CC3)cc2Cl)s1)NC(=O)c1ccnc(OCC(=O)O)c1 [Compound I-248]

Second part, the compound before the results:

Compound	IC50
C[C@@H](/C=C/c1cnc(Oc2ccc(OCC3CC3)cc2Cl)s1)NC(=O)c1cccc(C#N)c1 [Compound I-155]	0.58 µM
COc1cc(C(=O)N[C@@H](C)/C=C/c2cnc(Oc3ccc(OCC4CC4)cc3Cl)s2)ccn1 [Compound I-157]	0.26 µM
CCOCn1ccnc1-c1cc(C(=O)N[C@@H](C)/C=C/c2cnc(Oc3ccc(OCC4CC4)cc3Cl)s2)ccn1 [Compound I-158]	1.4 µM
CC(=O)Nc1ncc(C(=O)N[C@@H](C)/C=C/c2cnc(Oc3ccc(OCC4CC4)cc3Cl)s2)s1 [Compound I-159]	0.22 µM
CCCOc1ccc(Oc2ncc(/C=C/[C@H](C)NC(=O)c3ccnc(N)c3)s2)c(Cl)c1 [Compound I-163]	0.28 µM
CCCOc1ccc(Oc2ncc(/C=C/[C@H](C)NC(=O)c3ccncc3F)s2)c(Cl)c1 [Compound I-164]	0.85 µM
CCCOc1ccc(Oc2ncc(/C=C/[C@H](C)NC(=O)c3ccnc(N4CCOCC4)c3)s2)c(Cl)c1 [Compound I-165]	0.49 µM
CCCOc1ccc(Oc2ncc(/C=C/[C@H](C)NC(=O)c3ccncc3)s2)c(Cl)c1 [Compound I-169]	0.37 µM
C[C@@H](/C=C/c1cnn(Cc2ccc(OCC3CC3)cc2Cl)c1)NC(=O)C1CC1 [Compound I-172]	0.6 µM
C[C@@H](/C=C/c1cnn(Cc2ccc(OCC3CC3)cc2Cl)c1)NC(=O)c1ccon1 [Compound I-174]	2.6 µM
C[C@@H](/C=C/c1cnc(Oc2ccc(OCC3CC3)cc2Cl)s1)NC(=O)C(F)F [Compound I-177]	0.018 µM
CCOc1ccc(Oc2ccc(/C=C/[C@H](C)NC(=O)C(F)F)cn2)c(Cl)c1 [Compound I-179]	0.042 µM
COCCNC(=O)N[C@@H](C)/C=C/c1cnc(Oc2ccc(OCC3CC3)cc2Cl)s1 [Compound I-189]	0.24 µM
C[C@@H](/C=C/c1cnc(Oc2ccc(OCC3CC3)cc2Cl)s1)NC(=O)NCC(F)F [Compound I-192]	0.081 µM
C[C@@H](/C=C/c1cnc(Oc2ccc(OCC3CC3)cc2Cl)s1)NC(=O)NCC(F)(F)F [Compound I-193]	0.14 µM
C[C@@H](/C=C/c1cnc(Oc2ccc(OCC3CC3)cc2Cl)s1)NC(=O)NCCC(F)(F)F [Compound I-194]	0.3 µM
CCNC(=O)N[C@@H](C)/C=C/c1cnn(Cc2ccc(OCC3CC3)cc2Cl)c1 [Compound I-196]	1.1 µM
C[C@@H](/C=C/c1cnc(Oc2ccc(OCC3CC3)cc2Cl)s1)NC(=O)c1ccnc(C(=O)NCCN2CCOCC2)c1 [Compound I-208]	0.0049 µM
C[C@@H](/C=C/c1cnc(Oc2ccc(OCC3CC3)cc2Cl)s1)NC(=O)c1ccnc(C(=O)NC2CCOCC2)c1 [Compound I-209]	0.0045 µM
C[C@@H](/C=C/c1cnc(Oc2ccc(OCC3CC3)cc2Cl)s1)NC(=O)c1ccnc(C(=O)NCCN(C)C)c1 [Compound I-214]	0.018 µM
CC(C)ONC(=O)c1cc(C(=O)N[C@@H](C)/C=C/c2cnc(Oc3ccc(OCC4CC4)cc3Cl)s2)ccn1 [Compound I-216]	0.069 µM
C[C@@H](/C=C/c1cnn(Cc2ccc(OCC3CC3)cc2Cl)c1)NC(=O)c1ccnc(C(N)=O)c1 [Compound I-235]	0.3 µM
C[C@@H](/C=C/c1cnn(Cc2ccc(OCC3CC3)cc2Cl)c1)NC(=O)c1ccnc(C(=O)NC(C)(C)C)c1 [Compound I-236]	0.015 µM
C[C@@H](/C=C/c1cnc(Oc2ccc(OCC3CC3)cc2Cl)s1)NC(=O)c1ccnc(CO)c1 [Compound I-237]	0.087 µM
C[C@@H](/C=C/c1cnc(Oc2ccc(OCC3CC3)cc2Cl)s1)NC(=O)c1ccnc(NCCO)c1 [Compound I-243]	0.41 µM
C[C@@H](/C=C/c1cnc(Oc2ccc(OCC3CC3)cc2Cl)s1)NC(=O)c1ccnc(NCCN2CCCC2)c1 [Compound I-244]	0.036 µM
C[C@@H](/C=C/c1cnc(Oc2ccc(OCC3CC3)cc2Cl)s1)NC(=O)c1ccnc(NCCCN2CCCC2=O)c1 [Compound I-246]	0.073 µM
CCOC(=O)CCNc1cc(C(=O)N[C@@H](C)/C=C/c2cnc(Oc3ccc(OCC4CC4)cc3Cl)s2)ccn1 [Compound I-247]	0.43 µM

same assay, conditions: inhibition activity on human ACC2, untitled table (Table 81); read-out: IC50

IC50	Compound
0.096 µM	CC(=O)N[C@@H](C)/C=C/c1ccc(Oc2ccc(NC(=O)CC3CC3)cc2Cl)nc1 [Compound I-251]
0.16 µM	COc1cc(F)cc(Oc2ccc(/C=C/[C@H](C)NC(C)=O)cn2)c1 [Compound I-257]
0.45 µM	COc1ccc(F)c(Oc2ccc(/C=C/[C@H](C)NC(C)=O)cn2)c1 [Compound I-258]

The next lines start with the compound.

Compound	IC50
CCC(C)(C)c1ccc(Oc2ccc(/C=C/[C@H](C)NC(C)=O)cn2)c(Cl)c1 [Compound I-253]	0.017 µM
CC(=O)N[C@@H](C)/C=C/c1ccc(Oc2ccnc(OCC3CC3)c2)nc1 [Compound I-255]	0.087 µM
CC(=O)N[C@@H](C)/C=C/c1ccc(Oc2ccc(NC(=O)CCCCl)cc2Cl)nc1 [Compound I-256]	0.05 µM
COc1cc(Oc2ccc(/C=C/[C@H](C)NC(C)=O)cn2)ccc1F [Compound I-259]	0.4 µM
CC(=O)N[C@@H](C)/C=C/c1ccc(Oc2ccc3c(c2)OCC(=O)N3CC2CC2)nc1 [Compound I-260]	0.15 µM
CC(=O)N[C@@H](C)/C=C/c1cnn(Cc2c(F)cc(OCC3CC3)cc2F)c1 [Compound I-261]	3 µM
